Measurements reported in the kinase profiling compilation of Christmann-Franck et al. (2016).

What was measured:
Assay in all cases: KINOMEscan competition binding
Conditions in all cases: compound 10.0 µM
CDC42BPG (human) = CDC42BPG (human) (UniProt Q6DT37)
CDK13 (human) = CDK13 (human) (UniProt Q14004)
CDK15 (human) = CDK15 (human) (UniProt Q96Q40)
CDK19 (human) = CDK19 (human) (UniProt Q9BWU1)
CDK9 (human) = CDK9 (human) (UniProt P50750)
CDKL3 (human) = CDKL3 (human) (UniProt Q8IVW4)
CDKL5 (human) = CDKL5 (human) (UniProt O76039)
CHUK (human) = CHUK (human) (UniProt O15111)
CLK1 (human) = CLK1 (human) (UniProt P49759)
CSNK1D (human) = CSNK1D (human) (UniProt P48730)
CSNK1G1 (human) = CSNK1G1 (human) (UniProt Q9HCP0)
CSNK1G1 (human), sequence (Q9HCP0 whole entry, looked up): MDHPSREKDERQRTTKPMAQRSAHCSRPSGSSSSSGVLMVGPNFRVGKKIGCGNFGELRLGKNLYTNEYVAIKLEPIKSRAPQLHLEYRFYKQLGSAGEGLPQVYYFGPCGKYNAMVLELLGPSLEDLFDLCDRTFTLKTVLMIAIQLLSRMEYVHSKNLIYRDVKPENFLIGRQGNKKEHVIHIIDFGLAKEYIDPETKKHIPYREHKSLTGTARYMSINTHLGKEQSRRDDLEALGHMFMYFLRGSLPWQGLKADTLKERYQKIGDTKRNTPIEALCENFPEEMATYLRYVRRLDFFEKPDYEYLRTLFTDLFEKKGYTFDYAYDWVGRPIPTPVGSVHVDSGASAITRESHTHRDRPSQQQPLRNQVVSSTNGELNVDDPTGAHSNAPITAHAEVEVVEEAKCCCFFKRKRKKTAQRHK

DCLK2 (human) = DCLK2 (human) (UniProt Q8N568)
EPHA4 (human) = EPHA4 (human) (UniProt P54764)
HIPK4 (human) = HIPK4 (human) (UniProt Q8NE63)
IRAK4 (human) = IRAK4 (human) (UniProt Q9NWZ3)
LCK (human) = LCK (human) (UniProt P06239)
LCK (human), sequence (P06239 whole entry, looked up): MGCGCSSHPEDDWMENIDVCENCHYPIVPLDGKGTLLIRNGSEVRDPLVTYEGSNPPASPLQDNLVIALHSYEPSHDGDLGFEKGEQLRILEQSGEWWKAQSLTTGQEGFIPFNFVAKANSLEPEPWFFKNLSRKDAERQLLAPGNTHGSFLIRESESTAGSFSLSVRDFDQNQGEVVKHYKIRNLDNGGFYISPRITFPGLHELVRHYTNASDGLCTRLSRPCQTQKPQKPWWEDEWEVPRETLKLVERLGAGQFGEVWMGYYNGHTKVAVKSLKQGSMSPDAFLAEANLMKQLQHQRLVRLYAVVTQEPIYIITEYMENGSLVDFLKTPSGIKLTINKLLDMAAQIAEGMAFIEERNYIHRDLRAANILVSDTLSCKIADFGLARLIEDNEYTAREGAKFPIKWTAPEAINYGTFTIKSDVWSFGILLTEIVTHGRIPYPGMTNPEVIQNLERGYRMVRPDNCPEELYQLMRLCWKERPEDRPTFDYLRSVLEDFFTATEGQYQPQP

[1] = system: LRRK2 (human), Q5S007 [G2019S]
MAP2K3 (human) = MAP2K3 (human) (UniProt P46734)
MAP2K3 (human), sequence (P46734 whole entry, looked up): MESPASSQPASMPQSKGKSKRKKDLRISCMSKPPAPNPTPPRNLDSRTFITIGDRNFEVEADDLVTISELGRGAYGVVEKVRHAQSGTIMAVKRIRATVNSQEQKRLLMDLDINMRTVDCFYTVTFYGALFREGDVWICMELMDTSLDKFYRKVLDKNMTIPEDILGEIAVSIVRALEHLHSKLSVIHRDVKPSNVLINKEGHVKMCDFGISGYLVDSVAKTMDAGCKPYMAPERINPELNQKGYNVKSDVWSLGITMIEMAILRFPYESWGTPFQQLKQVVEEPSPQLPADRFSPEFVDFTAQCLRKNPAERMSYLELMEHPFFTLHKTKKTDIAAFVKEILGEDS

MAP3K5 (human) = MAP3K5 (human) (UniProt Q99683)
MAPK6 (human) = MAPK6 (human) (UniProt Q16659)
MAPK6 (human), sequence (Q16659 whole entry, looked up): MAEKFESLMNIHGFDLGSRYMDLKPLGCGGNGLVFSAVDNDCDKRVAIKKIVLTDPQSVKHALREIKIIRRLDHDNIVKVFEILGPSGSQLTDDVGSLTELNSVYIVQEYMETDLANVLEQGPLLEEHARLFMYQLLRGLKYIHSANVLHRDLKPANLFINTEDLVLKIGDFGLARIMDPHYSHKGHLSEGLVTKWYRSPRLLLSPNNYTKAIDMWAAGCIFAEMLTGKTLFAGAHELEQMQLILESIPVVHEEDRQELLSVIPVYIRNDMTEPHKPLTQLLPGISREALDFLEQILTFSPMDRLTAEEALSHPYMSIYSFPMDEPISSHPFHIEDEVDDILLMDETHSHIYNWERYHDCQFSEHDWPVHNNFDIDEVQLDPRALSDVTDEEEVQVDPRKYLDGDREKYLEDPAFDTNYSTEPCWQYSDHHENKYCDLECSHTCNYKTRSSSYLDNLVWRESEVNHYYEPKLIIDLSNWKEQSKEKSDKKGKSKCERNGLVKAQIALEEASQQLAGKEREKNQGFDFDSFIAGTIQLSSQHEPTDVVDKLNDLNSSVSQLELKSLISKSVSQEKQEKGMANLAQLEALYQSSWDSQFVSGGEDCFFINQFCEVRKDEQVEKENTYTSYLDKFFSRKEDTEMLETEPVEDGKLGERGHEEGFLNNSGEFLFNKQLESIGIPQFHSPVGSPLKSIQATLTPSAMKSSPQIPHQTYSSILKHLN

MST4 (human) = MST4 (human) (UniProt Q9P289)
MTOR (human) = MTOR (human) (UniProt P42345)
MYLK2 (human) = MYLK2 (human) (UniProt Q9H1R3)
PDGFRB (human) = PDGFRB (human) (UniProt P09619)
PDPK1 (human) = PDPK1 (human) (UniProt O15530)
PIK3CA (human) = PIK3CA (human) (UniProt P42336)
PIK3CB (human) = PIK3CB (human) (UniProt P42338)
PIK3CB (human), sequence (P42338 whole entry, looked up): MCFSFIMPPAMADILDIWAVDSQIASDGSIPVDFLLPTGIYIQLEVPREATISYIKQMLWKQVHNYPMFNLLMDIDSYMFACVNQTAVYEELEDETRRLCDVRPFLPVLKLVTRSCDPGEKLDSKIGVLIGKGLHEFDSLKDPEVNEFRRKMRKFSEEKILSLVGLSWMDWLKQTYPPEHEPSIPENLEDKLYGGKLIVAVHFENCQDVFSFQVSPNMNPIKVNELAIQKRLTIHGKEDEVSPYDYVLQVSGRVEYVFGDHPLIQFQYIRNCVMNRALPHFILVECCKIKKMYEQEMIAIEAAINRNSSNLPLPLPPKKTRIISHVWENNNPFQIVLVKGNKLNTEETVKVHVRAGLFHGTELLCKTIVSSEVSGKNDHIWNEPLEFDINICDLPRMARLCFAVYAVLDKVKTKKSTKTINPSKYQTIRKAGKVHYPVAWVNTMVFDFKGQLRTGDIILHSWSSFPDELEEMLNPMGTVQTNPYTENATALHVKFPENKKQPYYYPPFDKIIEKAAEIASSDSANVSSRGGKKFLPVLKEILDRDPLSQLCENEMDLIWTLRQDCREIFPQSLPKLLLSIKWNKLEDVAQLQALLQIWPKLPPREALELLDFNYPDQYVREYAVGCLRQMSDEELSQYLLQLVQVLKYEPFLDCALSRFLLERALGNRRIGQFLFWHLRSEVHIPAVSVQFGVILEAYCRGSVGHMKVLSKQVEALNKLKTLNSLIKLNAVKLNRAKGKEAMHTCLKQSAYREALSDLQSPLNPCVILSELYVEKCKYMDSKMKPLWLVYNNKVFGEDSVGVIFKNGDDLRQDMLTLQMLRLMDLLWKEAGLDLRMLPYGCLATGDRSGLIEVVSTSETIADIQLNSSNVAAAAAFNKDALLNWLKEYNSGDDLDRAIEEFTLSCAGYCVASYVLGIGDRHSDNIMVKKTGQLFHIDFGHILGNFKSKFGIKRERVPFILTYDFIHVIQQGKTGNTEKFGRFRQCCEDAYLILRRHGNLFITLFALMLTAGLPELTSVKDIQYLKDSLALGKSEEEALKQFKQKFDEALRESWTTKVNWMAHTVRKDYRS

PIK3CG (human) = PIK3CG (human) (UniProt P48736)
PIM3 (human) = PIM3 (human) (UniProt Q86V86)
PTK2 (human) = PTK2 (human) (UniProt Q05397)
PTK2 (human), sequence (Q05397 whole entry, looked up): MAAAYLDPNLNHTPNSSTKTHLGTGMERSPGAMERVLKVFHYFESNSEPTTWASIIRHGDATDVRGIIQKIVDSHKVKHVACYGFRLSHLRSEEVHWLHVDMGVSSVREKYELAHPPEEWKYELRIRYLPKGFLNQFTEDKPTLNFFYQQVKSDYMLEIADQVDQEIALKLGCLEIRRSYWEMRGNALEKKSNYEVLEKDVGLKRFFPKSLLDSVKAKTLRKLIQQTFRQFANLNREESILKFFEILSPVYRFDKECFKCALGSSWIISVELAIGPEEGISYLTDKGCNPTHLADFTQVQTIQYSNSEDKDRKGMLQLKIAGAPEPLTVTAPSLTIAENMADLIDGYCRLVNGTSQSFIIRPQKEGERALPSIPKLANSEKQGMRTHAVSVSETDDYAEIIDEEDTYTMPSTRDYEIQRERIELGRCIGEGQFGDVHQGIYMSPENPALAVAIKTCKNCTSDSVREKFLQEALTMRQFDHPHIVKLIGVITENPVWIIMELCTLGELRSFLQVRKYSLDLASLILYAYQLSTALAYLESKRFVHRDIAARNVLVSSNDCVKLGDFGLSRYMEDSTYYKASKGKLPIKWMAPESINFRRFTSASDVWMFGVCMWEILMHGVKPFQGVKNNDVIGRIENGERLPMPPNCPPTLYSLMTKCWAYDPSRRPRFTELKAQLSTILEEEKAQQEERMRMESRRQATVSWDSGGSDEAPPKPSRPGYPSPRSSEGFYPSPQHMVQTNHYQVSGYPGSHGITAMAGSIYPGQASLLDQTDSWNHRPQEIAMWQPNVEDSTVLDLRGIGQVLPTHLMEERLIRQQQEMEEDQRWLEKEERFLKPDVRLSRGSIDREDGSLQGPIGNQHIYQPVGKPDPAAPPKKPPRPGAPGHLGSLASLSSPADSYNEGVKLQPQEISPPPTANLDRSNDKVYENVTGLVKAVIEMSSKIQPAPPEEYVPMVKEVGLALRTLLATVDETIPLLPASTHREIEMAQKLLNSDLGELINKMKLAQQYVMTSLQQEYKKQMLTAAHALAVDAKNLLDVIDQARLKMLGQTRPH

PTK6 (human) = PTK6 (human) (UniProt Q13882)
RPS6KA2 KD1 (human) = RPS6KA2 KD1 (human) (UniProt Q15349)
RPS6KA5 KD1 (human) = RPS6KA5 KD1 (human) (UniProt O75582)
STK17B (human) = STK17B (human) (UniProt O94768)
STK32A (human) = STK32A (human) (UniProt Q8WU08)
STK36 (human) = STK36 (human) (UniProt Q9NRP7)
TAOK3 (human) = TAOK3 (human) (UniProt Q9H2K8)
TBK1 (human) = TBK1 (human) (UniProt Q9UHD2)
TTK (human) = TTK (human) (UniProt P33981)
ZAP70 (human) = ZAP70 (human) (UniProt P43403)

CDKL3 (human), sequence (Q8IVW4 whole entry, looked up): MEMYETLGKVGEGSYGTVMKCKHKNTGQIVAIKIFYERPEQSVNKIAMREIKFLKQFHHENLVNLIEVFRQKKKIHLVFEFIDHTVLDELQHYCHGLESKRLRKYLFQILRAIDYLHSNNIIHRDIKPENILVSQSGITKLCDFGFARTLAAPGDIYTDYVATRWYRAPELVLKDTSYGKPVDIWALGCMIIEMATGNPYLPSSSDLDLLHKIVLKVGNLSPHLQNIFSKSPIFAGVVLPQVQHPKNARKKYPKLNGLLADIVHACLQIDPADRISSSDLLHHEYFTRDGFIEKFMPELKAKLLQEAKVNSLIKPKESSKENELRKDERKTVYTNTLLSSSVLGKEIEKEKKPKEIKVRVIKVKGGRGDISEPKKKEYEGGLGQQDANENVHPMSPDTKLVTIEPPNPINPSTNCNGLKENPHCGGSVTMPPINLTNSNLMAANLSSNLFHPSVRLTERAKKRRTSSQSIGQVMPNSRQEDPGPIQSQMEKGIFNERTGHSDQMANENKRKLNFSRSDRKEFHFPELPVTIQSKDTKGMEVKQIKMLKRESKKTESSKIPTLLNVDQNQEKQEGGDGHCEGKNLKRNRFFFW

| Structure (SMILES) | kinase still bound, per cent of control (CDC42BPG (human)) | kinase still bound, per cent of control (CDK13 (human)) | kinase still bound, per cent of control (CDK15 (human)) | kinase still bound, per cent of control (CDK19 (human)) | kinase still bound, per cent of control (CDK9 (human)) | kinase still bound, per cent of control (CDKL3 (human)) | kinase still bound, per cent of control (CDKL5 (human)) | kinase still bound, per cent of control (CHUK (human)) | kinase still bound, per cent of control (CSNK1D (human)) | kinase still bound, per cent of control (CSNK1G1 (human)) | kinase still bound, per cent of control (DCLK2 (human)) | kinase still bound, per cent of control (EPHA4 (human)) | kinase still bound, per cent of control (HIPK4 (human)) | kinase still bound, per cent of control (IRAK4 (human)) | kinase still bound, per cent of control (LCK (human)) | kinase still bound, per cent of control [1] | kinase still bound, per cent of control (MAP2K3 (human)) | kinase still bound, per cent of control (MAP3K5 (human)) | kinase still bound, per cent of control (MAPK6 (human)) | kinase still bound, per cent of control (MST4 (human)) | other results |
| --- | --- | --- | --- | --- | --- | --- | --- | --- | --- | --- | --- | --- | --- | --- | --- | --- | --- | --- | --- | --- | --- |
| O=c1[nH]c2ccccc2n1C1CCN(Cc2ccc(-c3nc4cc5[nH]cnc5cc4nc3-c3ccccc3)cc2)CC1 | 92% | 98% | 76% | 75% | 100% | 100% | 86% | 75% | 18% | 100% | 92% | 100% | 72% | 80% | 72% | 100% | 100% | 83% | 100% | 100% | kinase still bound, per cent of control (CLK1 (human)): 100%; kinase still bound, per cent of control (MTOR (human)): 100%; kinase still bound, per cent of control (MYLK2 (human)): 86%; kinase still bound, per cent of control (PDGFRB (human)): 72%; kinase still bound, per cent of control (PDPK1 (human)): 93%; kinase still bound, per cent of control (PIK3CA (human)): 77%; kinase still bound, per cent of control (PIK3CB (human)): 6.7%; kinase still bound, per cent of control (PIK3CG (human)): 25%; kinase still bound, per cent of control (PIM3 (human)): 100%; kinase still bound, per cent of control (PTK2 (human)): 95%; kinase still bound, per cent of control (PTK6 (human)): 100%; kinase still bound, per cent of control (RPS6KA2 KD1 (human)): 51%; kinase still bound, per cent of control (RPS6KA5 KD1 (human)): 100%; kinase still bound, per cent of control (STK17B (human)): 89%; kinase still bound, per cent of control (STK32A (human)): 66%; kinase still bound, per cent of control (STK36 (human)): 74%; kinase still bound, per cent of control (TAOK3 (human)): 84%; kinase still bound, per cent of control (TBK1 (human)): 70%; kinase still bound, per cent of control (TTK (human)): 100%; kinase still bound, per cent of control (ZAP70 (human)): 99% |
| CCCS(=O)(=O)Nc1ccc(F)c(C(=O)c2c[nH]c3ncc(Cl)cc23)c1F | 74% | 100% | 100% | 0.8% | 86% | 100% | 92% | 89% | 91% | 66% | 61% | 100% | 34% | 86% | 3.2% | 38% | 53% | 74% | 100% | 96% | kinase still bound, per cent of control (MTOR (human)): 58%; kinase still bound, per cent of control (MYLK2 (human)): 64%; kinase still bound, per cent of control (PDGFRB (human)): 0%; kinase still bound, per cent of control (PDPK1 (human)): 85%; kinase still bound, per cent of control (PIK3CA (human)): 82%; kinase still bound, per cent of control (PIK3CB (human)): 100%; kinase still bound, per cent of control (PIK3CG (human)): 83%; kinase still bound, per cent of control (PIM3 (human)): 65%; kinase still bound, per cent of control (PTK2 (human)): 51%; kinase still bound, per cent of control (PTK6 (human)): 0.5%; kinase still bound, per cent of control (RPS6KA2 KD1 (human)): 67%; kinase still bound, per cent of control (RPS6KA5 KD1 (human)): 100%; kinase still bound, per cent of control (STK17B (human)): 68%; kinase still bound, per cent of control (STK32A (human)): 85%; kinase still bound, per cent of control (STK36 (human)): 18%; kinase still bound, per cent of control (TAOK3 (human)): 61%; kinase still bound, per cent of control (TBK1 (human)): 100%; kinase still bound, per cent of control (TTK (human)): 60%; kinase still bound, per cent of control (ZAP70 (human)): 85% |
